Results taken from US7271147B2, “Antibiotics, tripropeptins and process for producing the same” (Zaidan Hojin Biseibutsu Kagaku Kenkyu Kai, priority 2000, dated 2007).
Values after ≈ are worked out from the molar mass of the structure shown. Like-named read-outs stand apart in the source and are kept apart here. Starred links: 1 amine or outer side, 2 acyl side, 3 side chain; linkers in the order of their positions; H or OH if unused. Positions of bridges follow the written chain, without caps; N, C: chain ends. Non-standard residues stand in square brackets, D forms with d. Residues, ends and D or L forms follow the SMILES beside them. ξ: configuration not given here. X4 = CC(C)CCCCCCCCCCC(CC(=O)[*:1])O[*:2]; X2 = CC(C)CCCCCCCCCC(CC(=O)[*:1])O[*:2]; X6 = CC(C)CCCCCCCCC(CC(=O)[*:1])O[*:2]; X5 = CC(C)CCCCCCCC(CC(=O)[*:1])O[*:2]; X3 = CC(C)CCCCCCC(CC(=O)[*:1])O[*:2]; ξAsp(3ξ-OH) = NC(C(=O)O)C(O)C(=O)O; X1 = O=C(C1C(O)CCN1[*:1])[*:2]

What was measured:
[1] = system: Salmonella typhi T-63; assay: Minimum growth inhibitory concentration, agar serial dilution; format: cell-based; conditions: Salmonella enterica, Mueller-Hinton agar
[2] = system: Enterococcus faecalis NCTC 12203 (vancomycin-resistant); assay: as above; format: cell-based; conditions: NCTC12203, 5% sheep blood-supplemented Mueller-Hinton agar
[3] = system: Staphylococcus aureus MS16460 (methicillin-resistant); assay: as above; format: cell-based; conditions: read-out: Minimum growth inhibitory concentration
[4] = system: Micrococcus luteus FDA16; assay: as above; format: cell-based; conditions: Mueller-Hinton agar
[5] = system: Enterococcus faecium NCTC 12204 (vancomycin-resistant); assay: as above; format: cell-based; conditions: NCTC12204, 5% sheep blood-supplemented Mueller-Hinton agar
[6] = system: Bacillus cereus ATCC10702; assay: as above; format: cell-based
[7] = system: Bacillus anthracis; assay: microbe, parasite or virus in culture; format: cell-based; conditions: read-out: Minimum growth inhibitory concentration
[8] = system: Enterococcus faecium JCM5804; assay: Minimum growth inhibitory concentration, agar serial dilution; format: cell-based; conditions: 5% sheep blood-supplemented Mueller-Hinton agar
[9] = system: Staphylococcus aureus TY-03456 (methicillin-resistant); assay: as above; format: cell-based; conditions: read-out: Minimum growth inhibitory concentration
[10] = system: Staphylococcus aureus Smith; assay: as above; format: cell-based; conditions: Mueller-Hinton agar
[11] = system: Corynebacterium bovis 1810; assay: as above; format: cell-based; conditions: Mueller-Hinton agar
[12] = system: Staphylococcus aureus TY-04282 (methicillin-resistant); assay: as above; format: cell-based; conditions: Mueller-Hinton agar
[13] = system: Staphylococcus aureus TY-03454 (methicillin-resistant); assay: as above; format: cell-based; conditions: Mueller-Hinton agar
[14] = system: Enterococcus faecium NCTC 12202 (vancomycin-resistant); assay: as above; format: cell-based; conditions: NCTC12202, 5% sheep blood-supplemented Mueller-Hinton agar
[15] = system: Bacillus subtilis PCI219; assay: as above; format: cell-based; conditions: Mueller-Hinton agar
[16] = system: Enterococcus faecalis NCTC 12201 (vancomycin-resistant); assay: as above; format: cell-based; conditions: NCTC12201, 5% sheep blood-supplemented Mueller-Hinton agar
[17] = system: Staphylococcus aureus MS9610 (multi-drug-resistant); assay: as above; format: cell-based; conditions: Mueller-Hinton agar
[18] = system: Shigella sonnei JS11746; assay: as above; format: cell-based; conditions: Mueller-Hinton agar
Protocol: (§1) Minimum growth inhibitory concentrations (μg/ml) of tripropeptin Z against a variety of microorganisms were measured on a Mueller-Hinton agar medium (manufactured by Difco Laboratories) or on a 5% sheep blood-supplemented Mueller-Hinton agar medium (manufactured by Difco Laboratories) for Enterococcus, by a serial dilution method according to the standard method as provided by Japanese Society of Chemotherapy.
as §1, with “A” for “Z”
as §1, with “B” for “Z”
as §1, with “C” for “Z”
as §1, with “D” for “Z”

[19] = system: Klebsiella pneumoniae PCI602; assay: as above; format: cell-based; conditions: Mueller-Hinton agar
[20] = system: Staphylococcus aureus FDA209P; assay: as above; format: cell-based; conditions: Mueller-Hinton agar
[21] = system: Staphylococcus aureus MS16497 (methicillin-resistant); assay: as above; format: cell-based; conditions: Mueller-Hinton agar
[22] = system: Staphylococcus aureus TY-00933 (methicillin-resistant); assay: as above; format: cell-based; conditions: read-out: Minimum growth inhibitory concentration
[23] = system: Enterococcus faecalis JCM5803; assay: as above; format: cell-based; conditions: 5% sheep blood-supplemented Mueller-Hinton agar
[24] = system: Staphylococcus aureus MS16526 (methicillin-resistant); assay: as above; format: cell-based; conditions: Mueller-Hinton agar
[25] = system: mice (ICR type, 4 weeks-aged, male); conditions: mouse, in vivo, iv, 300 mg/kg
Source text: However, an optimal dose of a tripropeptin can be decided by experts through suitable preliminary tests.

[26] = Staphylococcus aureus MS16460 (methicillin-resistant), Mueller-Hinton agar
[27] = Bacillus cereus ATCC10702, Mueller-Hinton agar, read-out: Minimum growth inhibitory concentration
[28] = Staphylococcus aureus TY-03456 (methicillin-resistant), Mueller-Hinton agar
[29] = Staphylococcus aureus TY-00933 (methicillin-resistant), Mueller-Hinton agar
[30] = Bacillus cereus, ATCC10702, read-out: Minimum growth inhibitory concentration

| Compound | MIC [1] [µg/mL] | MIC [2] [µg/mL] | MIC [4] [µg/mL] | MIC [5] [µg/mL] | MIC [7] [µg/mL] | MIC [8] [µg/mL] | MIC [10] [µg/mL] | MIC [11] [µg/mL] | MIC [12] [µg/mL] | MIC [13] [µg/mL] | MIC [14] [µg/mL] | MIC [15] [µg/mL] | MIC [16] [µg/mL] | MIC [17] [µg/mL] | MIC [18] [µg/mL] | MIC [19] [µg/mL] | MIC [20] [µg/mL] | MIC [21] [µg/mL] | MIC [23] [µg/mL] | MIC [24] [µg/mL] | other results |
| --- | --- | --- | --- | --- | --- | --- | --- | --- | --- | --- | --- | --- | --- | --- | --- | --- | --- | --- | --- | --- | --- |
| CC(C)CCCCCCC1CC(=O)NC(C(C)O)C(=O)N2CCCC2C(=O)N2CCCC2C(=O)NC(CCCNC(=N)N)C(=O)NC(C(O)C(=O)O)C(=O)NC(CO)C(=O)N2CCC(O)C2C(=O)NC(C(O)C(=O)O)C(=O)O1 (stereo not shown) [Tripropeptin Z] (TPPR[ξAsp(3ξ-OH)]S[X1][ξAsp(3ξ-OH)]; linker N-C via X3; configuration not given here) | > 50 | > 100 | < 0.39 | > 100 | 100 (≈ 89.9 µM) | > 100 | 6.25 (≈ 5.62 µM) | 6.25 (≈ 5.62 µM) | 25 (≈ 22.5 µM) | 25 (≈ 22.5 µM) | > 100 | 25 (≈ 22.5 µM) | 100 (≈ 89.9 µM) | 25 (≈ 22.5 µM) | > 100 | > 50 | 12.5 (≈ 11.2 µM) | 25 (≈ 22.5 µM) | 100 (≈ 89.9 µM) | 25 (≈ 22.5 µM) | MIC [3, 26]: 50 µg/mL (≈ 45 µM); MIC [6, 27]: > 50 µg/mL; MIC [9, 28]: 25 µg/mL (≈ 22.5 µM); MIC [22, 29]: 25 µg/mL (≈ 22.5 µM) |
| CC(C)CCCCCCCCC1CC(=O)NC(C(C)O)C(=O)N2CCCC2C(=O)N2CCCC2C(=O)NC(CCCNC(=N)N)C(=O)NC(C(O)C(=O)O)C(=O)NC(CO)C(=O)N2CCC(O)C2C(=O)NC(C(O)C(=O)O)C(=O)O1 (stereo not shown) [Tripropeptin B] (TPPR[ξAsp(3ξ-OH)]S[X1][ξAsp(3ξ-OH)]; linker N-C via X6; configuration not given here) | > 100 | 50 (≈ 43.8 µM) | 0.2 (≈ 0.175 µM) | 25 (≈ 21.9 µM) | 6.25 (≈ 5.48 µM) | 25 (≈ 21.9 µM) | 1.56 (≈ 1.37 µM) | 0.78 (≈ 0.684 µM) | 3.13 (≈ 2.74 µM) | 3.13 (≈ 2.74 µM) | 25 (≈ 21.9 µM) | 1.56 (≈ 1.37 µM) | 12.5 (≈ 11 µM) | 3.13 (≈ 2.74 µM) | > 100 | > 100 | 1.56 (≈ 1.37 µM) | 3.13 (≈ 2.74 µM) | 25 (≈ 21.9 µM) | 3.13 (≈ 2.74 µM) | MIC ([3]; Staphylococcus aureus): 6.25 µg/mL (≈ 5.48 µM); MIC [6, 27]: > 100 µg/mL; MIC [9, 28]: 3.13 µg/mL (≈ 2.74 µM); MIC [22, 29]: 3.13 µg/mL (≈ 2.74 µM) |
| CC(C)CCCCCCCCCC1CC(=O)NC(C(C)O)C(=O)N2CCCC2C(=O)N2CCCC2C(=O)NC(CCCNC(=N)N)C(=O)NC(C(O)C(=O)O)C(=O)NC(CO)C(=O)N2CCC(O)C2C(=O)NC(C(O)C(=O)O)C(=O)O1 (stereo not shown) [Tripropeptin C] (TPPR[ξAsp(3ξ-OH)]S[X1][ξAsp(3ξ-OH)]; linker N-C via X2; configuration not given here) | > 100 | 25 (≈ 21.7 µM) | 0.2 (≈ 0.173 µM) | 12.5 (≈ 10.8 µM) | 3.13 (≈ 2.71 µM) | 12.5 (≈ 10.8 µM) | 1.56 (≈ 1.35 µM) | 0.39 (≈ 0.338 µM) | 1.56 (≈ 1.35 µM) | 1.56 (≈ 1.35 µM) | 12.5 (≈ 10.8 µM) | 1.56 (≈ 1.35 µM) | 6.25 (≈ 5.41 µM) | 1.56 (≈ 1.35 µM) | > 100 | > 100 | 1.56 (≈ 1.35 µM) | 1.56 (≈ 1.35 µM) | 12.5 (≈ 10.8 µM) | 1.56 (≈ 1.35 µM) | MIC ([3]; Staphylococcus aureus): 3.13 µg/mL (≈ 2.71 µM); MIC [6, 30]: 3.13 µg/mL (≈ 2.71 µM); MIC ([9]; Staphylococcus aureus): 3.13 µg/mL (≈ 2.71 µM); Toxicity [25]: did not exhibit any toxicity; MIC ([22]; Staphylococcus aureus): 3.13 µg/mL (≈ 2.71 µM) |
| CC(C)CCCCCCCCCCC1CC(=O)NC(C(C)O)C(=O)N2CCCC2C(=O)N2CCCC2C(=O)NC(CCCNC(=N)N)C(=O)NC(C(O)C(=O)O)C(=O)NC(CO)C(=O)N2CCC(O)C2C(=O)NC(C(O)C(=O)O)C(=O)O1 (stereo not shown) [Tripropeptin D] (TPPR[ξAsp(3ξ-OH)]S[X1][ξAsp(3ξ-OH)]; linker N-C via X4; configuration not given here) | > 100 | 6.25 (≈ 5.35 µM) | 0.2 (≈ 0.171 µM) | 6.25 (≈ 5.35 µM) | 1.56 (≈ 1.34 µM) | 6.25 (≈ 5.35 µM) | 0.39 (≈ 0.334 µM) | 0.2 (≈ 0.171 µM) | 0.78 (≈ 0.668 µM) | 0.78 (≈ 0.668 µM) | 6.25 (≈ 5.35 µM) | 0.78 (≈ 0.668 µM) | 3.13 (≈ 2.68 µM) | 0.78 (≈ 0.668 µM) | > 100 | > 100 | 0.39 (≈ 0.334 µM) | 0.78 (≈ 0.668 µM) | 3.13 (≈ 2.68 µM) | 0.78 (≈ 0.668 µM) | MIC ([3]; Staphylococcus aureus): 1.56 µg/mL (≈ 1.34 µM); MIC [6, 30]: 1.56 µg/mL (≈ 1.34 µM); MIC [9, 28]: 0.78 µg/mL (≈ 0.668 µM); MIC [22, 29]: 0.78 µg/mL (≈ 0.668 µM) |
| CC(C)CCCCCCCC1CC(=O)NC(C(C)O)C(=O)N2CCCC2C(=O)N2CCCC2C(=O)NC(CCCNC(=N)N)C(=O)NC(C(O)C(=O)O)C(=O)NC(CO)C(=O)N2CCC(O)C2C(=O)NC(C(O)C(=O)O)C(=O)O1 (stereo not shown) [Tripropeptin A] (TPPR[ξAsp(3ξ-OH)]S[X1][ξAsp(3ξ-OH)]; linker N-C via X5; configuration not given here) | > 50 | 50 (≈ 44.4 µM) | < 0.39 | 50 (≈ 44.4 µM) | 25 (≈ 22.2 µM) | 50 (≈ 44.4 µM) | 0.78 (≈ 0.693 µM) | 1.56 (≈ 1.39 µM) | 6.25 (≈ 5.55 µM) | 6.25 (≈ 5.55 µM) | 50 (≈ 44.4 µM) | 3.13 (≈ 2.78 µM) | 50 (≈ 44.4 µM) | 6.25 (≈ 5.55 µM) | > 100 | > 50 | 1.56 (≈ 1.39 µM) | 6.25 (≈ 5.55 µM) | 50 (≈ 44.4 µM) | 3.13 (≈ 2.78 µM) | MIC [3, 26]: 6.25 µg/mL (≈ 5.55 µM); MIC [6, 27]: 12.3 µg/mL (≈ 10.9 µM); MIC [9, 28]: 6.25 µg/mL (≈ 5.55 µM); MIC [22, 29]: 6.25 µg/mL (≈ 5.55 µM) |
